Common to all, as to experiment: growth of human tumour cells (NCI), 48 h
Test [1] deals with UACC-257 melanoma.
In test [2] the test system is RPMI-8226 leukemia.
For test [3], the system named is SN12C renal.
Test [4] concerns IGROV1 ovarian.
For test [5], the system named is T-47D breast.
Test [6] relates to HL-60(TB) leukemia.
Test [7] has as its system ACHN renal.
Test [8] has as its system M14 melanoma.
Test [9] relates to UACC-62 melanoma.
In test [10] the test system is UO-31 renal.

Molecules are shown by their SMILES. Where “and” joins values, the source holds several entries; their conditions need not be identical. Equal values may be shown once.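 Interpolation was linear, between the two tested concentrations surrounding the appropriate level; five concentrations were tested over 48 hours in 96-well plates. The concentration for 50% growth inhibition is given as GI50. The concentration for full growth arrest is given as TGI.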

For `CN(C)C1CCN(Cc2ccc(NC(=O)c3cncc(C#Cc4cnc(N)c5ncccc45)c3)cc2C(F)(F)F)CC1`, the GI50 in [1] is 1.43 µM; in test [2], 4.31 µM; in test [3] it was 8.94 µM; in [4], 9.48 µM; in test [5], 11.6 µM; in test [6] it was 9.8 µM. The GI50 is 0.828 µM in test [7], 0.962 µM in [8], 6.09 µM in test [9] and 0.999 µM in test [10]. Also, the TGI in test [1] is 3.97 µM; in test [2], 17 µM; in test [3], 18.1 µM; in test [4] it was 19.9 µM; in [5], 43.8 µM; in [6], 24.4 µM. For the same compound, the TGI stood at 1.51 µM in test [7], 1.87 µM in test [8], 13.8 µM in test [9] and 1.78 µM in [10].
With `COc1ccc(-c2coc3cc(O)ccc3c2=O)cc1`, the TGI in test [1], in test [3], in test [4], in test [5], in [6] and in test [7] was above 100 µM in each case. In addition, the TGI in test [8], in test [9] and in [10] was above 100 µM throughout.
`CNS(=O)(=O)OCC1OC(n2cnc3cncnc32)C(O)C1O` (stereo not given): the GI50 in [1], in [2], in test [3], in [4], in test [5] and in [6] was above 100 µM each time. For the same compound, the GI50 in [7], in test [8], in [9] and in test [10] was above 100 µM in each case. The TGI in [1], in test [2], in test [3], in test [4], in test [5] and in [6] was above 100 µM in each case. In addition, the TGI in [7], in [8], in test [9] and in test [10] was above 100 µM each time.
For `COc1cc2c(NCCCCCO)ncnc2c(OC)c1OC`, the TGI in [1], in [2], in test [3], in [4], in test [5] and in test [6] was above 100 µM in each case. Moreover, the TGI in test [7], in [8], in test [9] and in [10] was above 100 µM in each case.
For the compound `COC(=O)c1ccc2nc(-c3cc4ccccc4n3C)n(CCCCOc3cc4c(cc3OC)C(=O)N3CCC[C@H]3C=N4)c2c1`, the GI50 in test [1] is 1.17 µM; in test [2], 0.345 µM; in [3] it was 0.361 µM; in [4] it was 0.254 µM; in test [5], 0.751 µM; in test [6], 0.273 µM. Also, the GI50 in test [7] is 1.17 µM; in test [8], 0.713 µM; in [9], 0.211 µM; in test [10], 0.389 µM. The TGI in test [1] was 3.78 µM; in [2] it was above 100 µM; in test [3] it was 2.17 µM; in test [4], 0.889 µM; in [5], 3.51 µM; in test [7] it was 6.75 µM. Also, the TGI is 2.07 µM in [8], 0.625 µM in [9] and 2.19 µM in test [10].
Regarding `Cc1ccc(F)c(NC(=O)Nc2ccc(-c3cccc4[nH]nc(N)c34)cc2)c1`, the GI50 in test [1] was 4.39 µM and 5.34 µM; in test [2], 2.27 µM and 2.39 µM; in test [3], 3.16 µM and 3.54 µM; in [4], 4 µM and 3.13 µM; in [5] it was 3.62 µM and 2.89 µM; in test [6], 1.95 µM and 3.29 µM. Also, the GI50 in test [7] is 3.14 µM and 2.85 µM; in [8] it was 3.63 µM and 3.58 µM; in test [9] it was 3.27 µM and 4.2 µM; in test [10] it was 2.79 µM and 2.91 µM. The TGI in test [1] was 16.7 µM and > 10 µM; in [2] it was 6.11 µM and 6.27 µM; in test [3] it was 13 µM and > 10 µM; in test [4], 15.8 µM and > 10 µM; in test [5] it was 17.3 µM and > 10 µM; in test [6], 5.63 µM and > 10 µM. Besides, the TGI was 11.4 µM and > 10 µM in [7]; 15.5 µM and > 10 µM in test [8]; 11.7 µM and > 10 µM in [9]; 11.3 µM and > 10 µM in test [10].
As for `Cc1ccc(C)c2c1C(=O)N(c1ccc(F)cc1F)C2=O`, the GI50 in test [1] is above 100 µM; in [2], 98.8 µM; in [3] it was above 100 µM; in test [4], above 100 µM; in test [5], 74.5 µM; in [6], above 100 µM. Besides, the GI50 in [7], in [8], in [9] and in test [10] was above 100 µM throughout. The TGI in [1], in [2], in test [3], in test [4], in test [5] and in [6] was above 100 µM throughout. Besides, the TGI in test [7], in test [8], in [9] and in [10] was above 100 µM throughout.
Take `CC(c1cc(Cl)ccc1O)c1cc(Cl)ccc1O`: the GI50 in test [2] is 3.73 µM; in [3], 3.66 µM; in [5], 3.85 µM; in test [6], 2.55 µM; in [7] it was 3.99 µM; in test [8], 2.97 µM. Moreover, the GI50 in [9] is 3.58 µM; in test [10], 2.3 µM. In addition, the TGI in [2] was 9.89 µM; in test [3], 16.1 µM; in test [5], 18.7 µM; in [6] it was 5.75 µM; in test [7], 14.1 µM; in test [8], 9.82 µM. Also, the TGI in test [9] stood at 15 µM; in test [10], 10.8 µM.
As for `O=C([O][Hg][c]1ccccc1)c1ccccc1`, the GI50 in test [1] is 1.38 µM; in test [2], 1.23 µM; in [4] it was 1.48 µM; in test [5], 0.475 µM; in test [6] it was 0.325 µM; in test [7] it was 1.57 µM. Moreover, the GI50 is 1.36 µM in [8], 1.55 µM in test [9] and 1.47 µM in [10]. Also, the TGI in [1] was found to be 3.03 µM; in test [2], 4.56 µM; in test [4], 3.58 µM; in test [5] it was 2.43 µM; in test [6], 1.86 µM; in test [7] it was 2.99 µM. Besides, the TGI amounted to 2.94 µM in [8], 4.18 µM in test [9] and 2.89 µM in test [10].
As for `COC(=O)C12CCC(C)(C)CC1C1=CCC3C4(C)CC(O)C(O)C(C)(C(=O)OC)C4CCC3(C)C1(CO)CC2` (stereo not given), the TGI in test [1] was 31.7 µM; in [2], 40.9 µM; in [3], 33.2 µM; in [4], 35.2 µM; in test [5] it was 24 µM; in test [6], above 100 µM. The TGI in [7] worked out at 27.2 µM; in [8], 19.5 µM; in test [9], 28.9 µM.
For `C/C(=N\NC(=S)N1CCN(c2ccccn2)CC1)c1ccccn1`, the TGI in [2] was 23.6 µM; in test [3] it was 18.5 µM; in test [4] it was 15 µM; in [5], 7.37 µM; in test [6], 0.0104 µM; in test [7], 8.52 µM. Also, the TGI in test [8] stood at 8.06 µM; in [10], 6.8 µM. In addition, the GI50 in test [6] is 0.0416 µM; in test [7] it was 0.00217 µM; in [8], 0.0852 µM; in test [9], below 0.0114 µM; in [10] it was 0.141 µM.
For `COc1cc(OC)cc(Oc2cnc3cc(N)cc(N)c3n2)c1`, the GI50 is 18 µM in test [1]; 24 µM in test [2]; 15.8 µM in test [3]; 13.6 µM in [5]; 5.68 µM in test [6]; 15.8 µM in test [7]. For the same compound, the GI50 in test [8] was 13.4 µM; in [9] it was 14.4 µM; in test [10], 22.3 µM. Also, the TGI is 33.7 µM in test [1]; 53.7 µM in [2]; 29.3 µM in [3]; 42.4 µM in test [5]; 28 µM in test [6]; 33.3 µM in test [7]. Further, the TGI in test [8] was determined as 26.8 µM; in [9] it was 27.8 µM; in test [10], 46.8 µM.
For `COC1=CC(c2ccc[nH]2)=N/C1=C\c1[nH]c(C)c(C(=O)CCC(=O)Oc2ccc3c(c2)CCC2C3CC[C@]3(C)[C@@H](O)CC[C@@H]23)c1C` (stereo not given in full), the GI50 in test [1] was above 100 µM; in [3], 5.06 µM; in test [4], 4.47 µM; in test [5], 2.19 µM; in test [6], 4.7 µM; in test [7], 1.94 µM. In addition, the results for the GI50 in test [8], in test [9] and in test [10] were 2.1 µM, 1.7 µM and 1.59 µM, respectively. The TGI was above 100 µM in [1]; above 100 µM in test [3]; above 100 µM in test [4]; above 100 µM in test [5]; above 100 µM in [6]; 6.7 µM in test [7]. The TGI in test [8] turned out to be 4.6 µM; in test [9], 4.62 µM; in test [10], 3.73 µM.
`COc1cc2c3c(n(CCCN(CCCN(CCCn4c5c(c6ccccc6c4=O)C(=O)c4ccccc4-5)C(=O)OC(C)(C)C)C(=O)OC(C)(C)C)c(=O)c2cc1OC)-c1cc2c(cc1C3=O)OCO2`: the GI50 in test [1], in [2], in test [3], in [4], in test [5] and in test [6] was above 100 µM each time. For the same compound, the GI50 in [8], in [9] and in [10] was above 100 µM throughout. The TGI in test [1], in test [2], in test [3], in test [4], in test [5] and in test [6] was above 100 µM throughout. Further, the TGI in test [8], in test [9] and in test [10] was above 100 µM in each case.
Consider `CCCCCCCCCCCCCC[n+]1ccccc1`, for which the GI50 was 0.93 µM in test [1]; 0.303 µM in test [2]; 0.926 µM in test [3]; 0.486 µM in test [5]; 0.262 µM in test [6]; 1.27 µM in test [7]. Further, the values for the GI50 in test [8], in test [9] and in test [10] were 0.459 µM, 0.96 µM and 1.42 µM, respectively. Moreover, the TGI worked out at 3.07 µM in test [1]; 1.33 µM in [2]; 2.5 µM in test [3]; 7.54 µM in test [5]; 0.838 µM in [6]; 6.18 µM in test [7]. In addition, the TGI turned out to be 1.98 µM in [8], 2.34 µM in [9] and 4.82 µM in [10].
On to `COc1ccc(/C=C/C(=O)c2c(O)ccc3c(C)c(C(=O)O)oc23)cc1`, for which the GI50 in [1] is 84.9 µM; in [3], 27.5 µM; in test [4], above 100 µM; in test [5], 64.7 µM; in test [6], 35.5 µM; in [7], above 100 µM. For the same compound, the GI50 was above 100 µM in test [8], 55 µM in [9] and above 100 µM in test [10]. The TGI in test [1], in test [3], in [4], in test [5], in [6] and in [7] was above 100 µM each time. The TGI in test [8], in test [9] and in [10] was above 100 µM in each case.
As to `O=C(CCCn1c2c(sc3ccccc32)c(=O)n2nnc(-c3ccccc3)c12)NCCc1cnc[nH]1`, the GI50 in [1] is 2.2 µM; in test [3], below 0.0105 µM; in test [4] it was 0.0997 µM; in [5], 0.638 µM; in [6] it was 0.0724 µM; in [7] it was 1.37 µM. For the same compound, the figures for the GI50 in [9] and in test [10] were 1.81 µM and 1.42 µM, respectively. Also, the TGI was found to be 4.39 µM in [1]; 2.01 µM in [3]; 2.07 µM in [4]; 10.5 µM in test [5]; 3.21 µM in test [6]; 2.94 µM in test [7]. In addition, the TGI in test [9] turned out to be 3.39 µM; in [10], 2.95 µM.

(Values after PubChem BioAssay (NCI).)
